≈ marks a conversion by molar mass, not a printed value. Like-named read-outs stand apart in the source and are kept apart here.
What was measured:
Format in all cases: cell-based
[1] = test system: Streptococcus pyogenes IFO 3340; assay: Antibacterial activity, agar-dilution MIC, organism No. 26; settings: Streptococcus pyogenes, IFO3340, read-out: Minimum Inhibitory Concentration
Summary of the method: (§1)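 Minimum inhibitory concentration determined on solid bouillon agar by the agar-dilution technique, with values stated as μg/ml.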

[2] = test system: Enterobacter aerogenes ATCC 13048; assay: Antibacterial activity, agar-dilution MIC, organism No. 23; settings: Klebsiella aerogenes
Summary of the method: as §1

[3] = test system: Salmonella enteritidis G 14; assay: Antibacterial activity, agar-dilution MIC, organism No. 12; settings: Salmonella enterica, ENTERITIDIS, read-out: Minimum Inhibitory Concentration
Summary of the method: as §1

Proteus vulgaris OX-19 = assay: Antibacterial activity, agar-dilution MIC, organism No. 20; settings: Proteus vulgaris
Summary of the method: as §1

[4] = test system: Proteus morganii IFO 3848; assay: Antibacterial activity, agar-dilution MIC, organism No. 18; settings: Morganella morganii
Summary of the method: as §1

[5] = test system: Escherichia coli NIHJ-JC-2; assay: Antibacterial activity, agar-dilution MIC, organism No. 5; settings: Escherichia coli
Summary of the method: as §1

[6] = test system: Escherichia coli K12 C600 IAM 1264; assay: Antibacterial activity, agar-dilution MIC, organism No. 6; settings: Escherichia coli
Summary of the method: as §1

[7] = test system: Proteus mirabilis IFO 3849; assay: Antibacterial activity, agar-dilution MIC, organism No. 19; settings: Proteus mirabilis
Summary of the method: as §1

[8] = test system: Salmonella typhimurium IID 971; assay: Antibacterial activity, agar-dilution MIC, organism No. 8; settings: Salmonella enterica, read-out: Minimum Inhibitory Concentration
Summary of the method: as §1

[9] = test system: Staphylococcus aureus MS 353; assay: Antibacterial activity, agar-dilution MIC, organism No. 3; settings: Staphylococcus aureus
Summary of the method: as §1

[10] = test system: Proteus rettgeri IFO 3850; assay: Antibacterial activity, agar-dilution MIC, organism No. 22; settings: Providencia rettgeri
Summary of the method: as §1

[11] = test system: Staphylococcus aureus FDA 209PJc-1; assay: Antibacterial activity, agar-dilution MIC, organism No. 1; settings: Staphylococcus aureus
Summary of the method: as §1

[12] = test system: Staphylococcus aureus Terajima; assay: Antibacterial activity, agar-dilution MIC, organism No. 2; settings: Staphylococcus aureus, read-out: Minimum Inhibitory Concentration
Summary of the method: as §1

Proteus vulgaris HX-19 = assay: Antibacterial activity, agar-dilution MIC, organism No. 21; settings: Proteus vulgaris
Summary of the method: as §1

Salmonella typhi 901 = assay: Antibacterial activity, agar-dilution MIC, organism No. 9; settings: Salmonella enterica, TYPHI, read-out: Minimum Inhibitory Concentration
Summary of the method: as §1

[13] = test system: Pseudomonas aeruginosa IFO 3445; assay: Antibacterial activity, agar-dilution MIC, organism No. 15; settings: Pseudomonas aeruginosa
Summary of the method: as §1

[14] = test system: Micrococcus luteus ATCC 9341; assay: Antibacterial activity, agar-dilution MIC, organism No. 25; settings: Micrococcus luteus
Summary of the method: as §1

[15] = test system: Pseudomonas aeruginosa PAO 1; assay: Antibacterial activity, agar-dilution MIC, organism No. 17; settings: Pseudomonas aeruginosa
Summary of the method: as §1

[16] = test system: Streptococcus pyogenes Cook; assay: Antibacterial activity, agar-dilution MIC, organism No. 4; settings: Streptococcus pyogenes, read-out: Minimum Inhibitory Concentration
Summary of the method: as §1

[17] = test system: Serratia marcescens IAM 1184; assay: Antibacterial activity, agar-dilution MIC, organism No. 13; settings: Serratia marcescens
Description: Agar-dilution method was used for determination of the antibacterial activity and antifungal activity while using bouillon-agar culture medium, and the minimum inhibitory concentration of the specimen was expressed by μg/ml of the culture medium.

[18] = test system: Candida albicans IAM 4905; assay: Antifungal activity, agar-dilution MIC, organism No. 29; settings: Candida albicans
Summary of the method: as §1

[19] = test system: Aspergillus niger IFO 6342; assay: Antifungal activity, agar-dilution MIC, organism No. 30; settings: Aspergillus niger
Summary of the method: as §1

[20] = test system: Salmonella paratyphi-A 1015; assay: Antibacterial activity, agar-dilution MIC, organism No. 10; settings: Salmonella enterica, PARATYPHI, read-out: Minimum Inhibitory Concentration
Summary of the method: as §1

[21] = test system: Klebsiella pneumoniae PCI-602; assay: Antibacterial activity, agar-dilution MIC, organism No. 7; settings: Klebsiella pneumoniae
Summary of the method: as §1

[22] = test system: Streptococcus faecium IFO 3826; assay: Antibacterial activity, agar-dilution MIC, organism No. 27; settings: Enterococcus faecium, IFO3826, read-out: Minimum Inhibitory Concentration
Summary of the method: as §1

[23] = test system: Pseudomonas aeruginosa NCTC 10490; assay: Antibacterial activity, agar-dilution MIC, organism No. 16; settings: Pseudomonas aeruginosa
Summary of the method: as §1

[24] = test system: Bacillus subtilis ATCC 6633; assay: Antibacterial activity, agar-dilution MIC, organism No. 14; settings: Bacillus subtilis
Summary of the method: as §1

Enterobacter cloacae 963 = assay: Antibacterial activity, agar-dilution MIC, organism No. 24
Summary of the method: as §1

[25] = test system: Salmonella shottmuelleri 8006; assay: Antibacterial activity, agar-dilution MIC, organism No. 11
Summary of the method: as §1

[26] = ATCC13048, read-out: Minimum Inhibitory Concentration
[27] = OX19, read-out: Minimum Inhibitory Concentration
[28] = IFO3848, read-out: Minimum Inhibitory Concentration
[29] = NIHJJC2, read-out: Minimum Inhibitory Concentration
[30] = IAM1264, read-out: Minimum Inhibitory Concentration
[31] = IFO3849, read-out: Minimum Inhibitory Concentration
[32] = MS353, read-out: Minimum Inhibitory Concentration
[33] = IFO3850, read-out: Minimum Inhibitory Concentration
[34] = FDA209PJC1, read-out: Minimum Inhibitory Concentration
[35] = HX19, read-out: Minimum Inhibitory Concentration
[36] = IFO3445, read-out: Minimum Inhibitory Concentration
[37] = ATCC9341, read-out: Minimum Inhibitory Concentration
[38] = PAO1, read-out: Minimum Inhibitory Concentration
[39] = IAM1184, read-out: Minimum Inhibitory Concentration
[40] = IAM4905, read-out: Minimum Inhibitory Concentration
[41] = IFO6342, read-out: Minimum Inhibitory Concentration
[42] = PCI602, read-out: Minimum Inhibitory Concentration
[43] = NCTC10490, read-out: Minimum Inhibitory Concentration
[44] = ATCC6633, read-out: Minimum Inhibitory Concentration
[45] = Enterobacter cloacae, 963, read-out: Minimum Inhibitory Concentration
[46] = Salmonella, 8006, read-out: Minimum Inhibitory Concentration

[C-]#[N+]C12CC3(/C=C/C(=O)Nc4ccc(O)cc4)OC3C1O2 (centres unmarked) [compound 56]
MIC [1]: 3.13 µg/mL (≈ 11 µM)
MIC [2, 26]: > 200 µg/mL
MIC [3]: 6.25 µg/mL (≈ 22 µM)
MIC (Proteus vulgaris OX-19; [27]): 3.13 µg/mL (≈ 11 µM)
MIC [4, 28]: 1.56 µg/mL (≈ 5.49 µM)
MIC [5, 29]: 25 µg/mL (≈ 87.9 µM)
MIC [6, 30]: 25 µg/mL (≈ 87.9 µM)
MIC [7, 31]: 12.5 µg/mL (≈ 44 µM)
MIC [8]: 12.5 µg/mL (≈ 44 µM)
MIC [9, 32]: 1.56 µg/mL (≈ 5.49 µM)
MIC [10, 33]: 3.13 µg/mL (≈ 11 µM)
MIC [11, 34]: 1.56 µg/mL (≈ 5.49 µM)
MIC [12]: 6.25 µg/mL (≈ 22 µM)
MIC (Proteus vulgaris HX-19; [35]): 1.56 µg/mL (≈ 5.49 µM)
MIC (Salmonella typhi 901): 6.25 µg/mL (≈ 22 µM)
MIC [13, 36]: > 200 µg/mL
MIC [14, 37]: 0.78 µg/mL (≈ 2.74 µM)
MIC [15, 38]: > 200 µg/mL
MIC [16]: 25 µg/mL (≈ 87.9 µM)
MIC [17, 39]: 50 µg/mL (≈ 176 µM)
MIC [18, 40]: 25 µg/mL (≈ 87.9 µM)
MIC [19, 41]: 50 µg/mL (≈ 176 µM)
MIC [20]: 3.13 µg/mL (≈ 11 µM)
MIC [21, 42]: 1.56 µg/mL (≈ 5.49 µM)
MIC [22]: 50 µg/mL (≈ 176 µM)
MIC [23, 43]: > 200 µg/mL
MIC [24, 44]: 12.5 µg/mL (≈ 44 µM)
MIC (Enterobacter cloacae 963; [45]): 200 µg/mL (≈ 704 µM)
MIC [25, 46]: 3.13 µg/mL (≈ 11 µM)

[C-]#[N+]C12CC3(/C=C/C(=O)Nc4nnc(C)s4)OC3C1O2 (centres unmarked) [compound 71]
MIC ([2]; ATCC13048, Organism No. 23, bouillon-agar, read-out: Minimum Inhibitory Concentration): > 200 µg/mL
MIC ([3]; Organism No. 12, bouillon-agar): 200 µg/mL (≈ 689 µM)
MIC (Proteus vulgaris OX-19; OX19, Organism No. 20, bouillon-agar, read-out: Minimum Inhibitory Concentration): 6.25 µg/mL (≈ 21.5 µM)
MIC ([4]; IFO3848, Organism No. 18, bouillon-agar, read-out: Minimum Inhibitory Concentration): 12.5 µg/mL (≈ 43.1 µM)
MIC ([5]; NIHJJC2, Organism No. 5, bouillon-agar, read-out: Minimum Inhibitory Concentration): > 200 µg/mL
MIC ([6]; IAM1264, Organism No. 6, bouillon-agar, read-out: Minimum Inhibitory Concentration): > 200 µg/mL
MIC ([7]; IFO3849, Organism No. 19, bouillon-agar, read-out: Minimum Inhibitory Concentration): > 200 µg/mL
MIC ([8]; Organism No. 8, bouillon-agar): > 200 µg/mL
MIC ([9]; MS353, Organism No. 3, bouillon-agar, read-out: Minimum Inhibitory Concentration): 6.25 µg/mL (≈ 21.5 µM)
MIC ([10]; IFO3850, Organism No. 22, bouillon-agar, read-out: Minimum Inhibitory Concentration): > 200 µg/mL
MIC ([11]; FDA209PJC1, Organism No. 1, bouillon-agar, read-out: Minimum Inhibitory Concentration): 1.56 µg/mL (≈ 5.37 µM)
MIC ([12]; Organism No. 2, bouillon-agar): 12.5 µg/mL (≈ 43.1 µM)
MIC (Proteus vulgaris HX-19; HX19, Organism No. 21, bouillon-agar, read-out: Minimum Inhibitory Concentration): 6.25 µg/mL (≈ 21.5 µM)
MIC (Salmonella typhi 901): 25 µg/mL (≈ 86.1 µM)
MIC ([13]; IFO3445, Organism No. 15, bouillon-agar, read-out: Minimum Inhibitory Concentration): > 200 µg/mL
MIC ([14]; ATCC9341, Organism No. 25, bouillon-agar, read-out: Minimum Inhibitory Concentration): > 200 µg/mL
MIC ([15]; PAO1, Organism No. 17, bouillon-agar, read-out: Minimum Inhibitory Concentration): > 200 µg/mL
MIC ([16]; Organism No. 4, bouillon-agar): 12.5 µg/mL (≈ 43.1 µM)
MIC ([17]; IAM1184, Organism No. 13, bouillon-agar, read-out: Minimum Inhibitory Concentration): > 200 µg/mL
MIC ([18]; IAM4905, Organism No. 29, bouillon-agar, read-out: Minimum Inhibitory Concentration): 12.5 µg/mL (≈ 43.1 µM)
MIC ([19]; IFO6342, Organism No. 30, bouillon-agar, read-out: Minimum Inhibitory Concentration): 200 µg/mL (≈ 689 µM)
MIC [20]: 12.5 µg/mL (≈ 43.1 µM)
MIC ([21]; PCI602, Organism No. 7, bouillon-agar, read-out: Minimum Inhibitory Concentration): > 200 µg/mL
MIC ([23]; NCTC10490, Organism No. 16, bouillon-agar, read-out: Minimum Inhibitory Concentration): > 200 µg/mL
MIC ([24]; ATCC6633, Organism No. 14, bouillon-agar, read-out: Minimum Inhibitory Concentration): > 200 µg/mL
MIC (Enterobacter cloacae 963; Enterobacter cloacae, 963, Organism No. 24, bouillon-agar, read-out: Minimum Inhibitory Concentration): > 200 µg/mL
MIC ([25]; Salmonella, 8006, Organism No. 11, bouillon-agar, read-out: Minimum Inhibitory Concentration): 100 µg/mL (≈ 344 µM)

[C-]#[N+]C12CC3(/C=C/C(=O)Nc4ccncc4)OC3C1O2 (centres unmarked) [compound 72]
MIC [2, 26]: > 200 µg/mL
MIC [3]: 12.5 µg/mL (≈ 46.4 µM)
MIC (Proteus vulgaris OX-19; [27]): 6.25 µg/mL (≈ 23.2 µM)
MIC [4, 28]: 6.25 µg/mL (≈ 23.2 µM)
MIC [5, 29]: 50 µg/mL (≈ 186 µM)
MIC [6, 30]: 50 µg/mL (≈ 186 µM)
MIC [7, 31]: > 200 µg/mL
MIC [8]: 25 µg/mL (≈ 92.8 µM)
MIC [9, 32]: 3.13 µg/mL (≈ 11.6 µM)
MIC [10, 33]: 200 µg/mL (≈ 743 µM)
MIC [11, 34]: 1.56 µg/mL (≈ 5.79 µM)
MIC [12]: 6.25 µg/mL (≈ 23.2 µM)
MIC (Proteus vulgaris HX-19; [35]): 6.25 µg/mL (≈ 23.2 µM)
MIC (Salmonella typhi 901): 12.5 µg/mL (≈ 46.4 µM)
MIC [13, 36]: > 200 µg/mL
MIC [14, 37]: 50 µg/mL (≈ 186 µM)
MIC [15, 38]: > 200 µg/mL
MIC [16]: 12.5 µg/mL (≈ 46.4 µM)
MIC [17, 39]: 100 µg/mL (≈ 371 µM)
MIC [18, 40]: 6.25 µg/mL (≈ 23.2 µM)
MIC [19, 41]: 6.25 µg/mL (≈ 23.2 µM)
MIC [20]: 3.13 µg/mL (≈ 11.6 µM)
MIC [21, 42]: 3.13 µg/mL (≈ 11.6 µM)
MIC [23, 43]: > 200 µg/mL
MIC [24, 44]: 12.5 µg/mL (≈ 46.4 µM)
MIC (Enterobacter cloacae 963; [45]): 200 µg/mL (≈ 743 µM)
MIC [25, 46]: 6.25 µg/mL (≈ 23.2 µM)

Source: patent US4684664A, “Derivatives of β-(4-isocyano-1,2,3,4-diepoxycyclopentyl) acrylic acid” (Kureha Kagaku Kogyo Kabushiki Kaisha, priority 1984, dated 1987)
